US20210100786A1, “Pharmaceutical Formulations” (CIPLA LIMITED, priority 2018, published 2021)

Experiments:
[1] = tested on: Caco-2 cells
[2] = tested on: Caco-2 cells; details: cited from earlier work

SMILES: COc1nc2ccc(Br)cc2cc1[C@@H](c1ccccc1)[C@@](O)(CCN(C)C)c1cccc2ccccc12 [Bedaquiline]
- absorption [1]: increased
- efflux ratio (Papp B-A/Papp A-B) [1]: decreasing the efflux ratio
- P-gp substrate status [2]: known P-gp substrate
